The values below come from patent US20240350456A1, “COMPOSITIONS AND METHODS FOR DIAGNOSING AND TREATING INFLAMMATORY CONDITIONS” (RUTGERS, THE STATE UNIVERSITY OF NEW JERSEY, priority 2023, published 2024).

“Also recorded” adds a separate entry of the source.

The test system of data set [1] is mouse intestinal organoids. The data set is described as follows: Organoid permeability assay with 4 kDa FITC-dextran, LPS with or without metabolites. The note with it: ex vivo organoids. Format: cell-based. The protocol:
Intestinal organoids were isolated as previously described (Das et al., 2015; Pearce et al., 2018). Briefly, crypts were isolated from small intestine of conventional house C57BL/6 male mice (Taconic Laboratories, Hudson, NY) by shaking in isolation buffer (2 mM EDTA in PBS), then, crypts were harvested, processed, and suspended in crypt culture medium (CCM), which consisted of advanced DMEM/F12 (Life Technologies, Carlsbad, CA) supplemented with serum-free B27 (1:50; Life Technologies), N2 (1:100; Life Technologies), N-acetylcysteine (1 mM; Sigma-Aldrich, St. Louis, MO), recombinant murine epithelial growth factor (EGF, 50 ng/ml; Peprotech, Rocky Hill, NJ), Noggin (100 ng/ml; Peprotech), R-Spondin (500 ng/ml; Peprotech), Glutamax-I supplement (1:100; Life Technologies), penicillin/streptomycin (500 μg/ml; Life Technologies), and HEPES ([…]; Life Technologies). Crypts were resuspended in 70% Matrigel (density ˜450 crypts per dome, 2 domes per well in 24-well plate) and allowed to solidify at 37° C. for 20 min. CCM (1.5 mL) was then added to each well. Cultures were incubated in a humidified incubator at 37° C., and CCM was changed daily. Intestinal organoid treatment with LPS and metabolites
(§1) We had 2 series of metabolite-treated organoid experiments, i.e., 1) organoid from conventional C57BL6 mice and 2) Ocln KO and littermate WT control as a gift from Prof. Jerrold Turner (Harvard University). […] Seeding is designated as day 0. On day 3 of culture, the existing media in the wells were completely removed before adding treatments. LPS (1 μg/mL) with or without metabolites, i.e., IPA (0.1 mM) (Li et al., 2021), IAM (200 μM) (Vyhlidalova et al., 2020), MNA (12 ng/ml) (Liu et al., 2015), CARN (20 mM) (Boldyrev et al., 2013) or ASA (1 μM) (Erez et al., 2011) were each added in CCM at known physiological concentrations, incubated for 48 hours, thereafter, organoid was harvested for RNA extraction, and paraformaldehyde fixation for immunostaining.
Permeability assays followed earlier work (Pearce et al., 2018). Briefly, all media were removed and then organoid were incubated with CCM containing 4 kDa FITC-dextran (Sigma-Aldrich, St. Louis, MO, Cat. #46944) at a final concentration of 1.25 µM for 30 minutes at 37° C. and at 5% CO2. […] A fluorescent microscope (Nikon Eclipse TI, NY) at a 10× magnification was used to observe and capture the fluorescence within the lumen of the organoids. Using the same area as the lumen, three different background samples are measured randomly around the lumen. The three background samples measured are averaged and then subtracted from the measured fluorescence of the lumen. […] The quantification of the fluorescence was conducted using the ImageJ 1.53 (NIH, Bethesda, MD).

Data set [2] concerns Tff3 and Lyz1 (goblet and Paneth cells). The data set is described as follows: Organoids: goblet and Paneth cell transcripts (Tff3, Lyz1) and cell numbers. The note with it: enteroids. The format is cell-based, mouse. As for the experimental part:
as §1
Total RNA was extracted from the intestinal organoids using a commercially available kit (RNeasy Microkit; Qiagen, MD, Cat. #74004) following manufacturer's instructions. mRNA samples were converted to cDNA using Bio-Rad's iScript Reverse Transcription Supermix for RT-qPCR (Bio-Rad Laboratories, Hercules, CA, Cat. #1708840). cDNA was then used for RT-qPCR (Mx3000P. Stratagene, La Jolla, CA) to analyze several genes using Maxima SYBR Green qPCR Master Mix (Thermo Fisher Scientific, Waltham, MA) and primers (Integrated DNA Technologies, Coralville, IA). Thermal profile for three-step cycling was 10 min at 95° C. for initial denaturation; then 40 cycles of 15 sec at 95° C. for denaturation, 30 sec at 65° C. for annealing, and 30 sec at 75° C. for extension. Primers used are as follows: β-actin (Actb), forward 5′-[…]-3′ (SEQ ID NO: 5), reverse 5′-[…]-3′ (SEQ ID NO: 6); ZO-1 (Tjp1), forward 5′-[…]-3′ (SEQ ID NO: 7), reverse 5′-[…]-3′ (SEQ ID NO: 8), Ocln, forward 5′-[…]-3′ (SEQ ID NO: 9), reverse 5′-[…]-3′ (SEQ ID NO: 10); Lyz1, forward 5′-ATGGCTACCGTGGTGTCAAG-3′ (SEQ ID NO: 11), reverse 5′-CGGTCTCCACGGTTGTAGTT-3′ (SEQ ID NO: 12); Tff3, forward 5′-TAATGCTGTTGGTGGTCCTG-3′ (SEQ ID NO: 13), reverse 5′-CAGCCACGGTTGTTACACTG-3′ (SEQ ID NO: 14). All samples were normalized to β actin expression. Gene expression levels are depicted as fold change relative to the control group.
Immunocytochemistry followed earlier work (Pearce et al., 2018). Briefly, organoids were extracted from Matrigel by using cell recovery solution (Corning, Cat. No. 354253), processed then fixed in 4% paraformaldehyde for 15 min and dehydrated with 70% ethanol and kept in 4° C. until embedded in paraffin. On the day of embedding, organoids were gently spun down to a pellet (250 g for 5 min), then the supernatant was removed, the pellet resuspended in agarose and embedded in paraffin. […]

For data set [3], the system named is human-derived Caco-2 cells. In words: In vitro transwell screening in Caco-2 cells, barrier disrupted by Clostridium difficile toxin (TEER and FITC-dextran permeability). Format: cell-based. The note with it: applied in the basolateral compartment, TOX. In general terms: Caco-2 cells form a polarised layer with tight junctions and transporters.
The test system of the next data set is Caco2 BBE monolayer. In words: TEER of confluent Caco2 BBE monolayer disrupted by luminal DSS, with MNA. Conditions: low dose. Format: cell-based, human.
For data set [4], the system named is leaky gut mouse model (DSS colitis). The data set is described as follows: DSS (3%) leaky gut colitis mouse model, metabolites i.p. The format is in vivo.
Excerpt: A moderate amount of DSS (3%) creates a leaky gut model.
FIG. 23A, Analysis of plasma ovalbumin levels after oral ovalbumin gavage in mice treated with exogenous MNA or PBS. […] Analysis of fecal lipocalin levels in mice treated with PBS or MNA with or without DSS. […] Representative histology sections of mice treated with PBS or MNA with or without DSS. FIG. 23D, quantification of mouse histology sections scored for colitis index.
FIG. 24A, Analysis of zonula occludens (Tjp1) and occluding (Ocln) mRNA levels after treatment with PBS or MNA with or without DSS. FIG. 24B, Western blot analysis and quantification of Ocln protein levels after treatment with PBS or MNA with or without DSS. FIG. 24C, Quantified levels of occluding in the ileum (top) and colon (bottom) using immunofluorescence antibody staining.
Administration of DSS induces experimental colitis and disrupts gut barrier in vivo in animal models.
Exogenous MNA administration was assessed by plasma ovalbumin levels after oral ovalbumin gavage—an accepted method to determine permeability of the gut paracellular pathway. […] (FIG. 23B) Histology sections of mice treated with or without DSS and PBS or MNA were also obtained. […] Sections from several mice were also examined by a blinded observer and scored for colitis index.
(FIG. 24B) Using immunofluoresce antibody staining, quantified levels of occludin in the ileum and colon were also analyzed.

Description for Caco2 BBE monolayer: MNA was applied from Day-5 at different concentrations on the luminal (L) or basolateral (BL) compartments. The monolayer was disrupted by 3% DSS in the luminal side on days 5-8.
Caco2 were provided with MNA at day 0 either luminally (L, mimics oral) or basolaterally (BL, mimics intra-peritoneal) (FIG. 17). Then DSS was added to lumen to disrupt gut barrier in all treatments except control (blue circles).

As for `NC(=O)Cc1c[nH]c2ccccc12` [Indole-3-acetamide, indole-3-acetamide], in data set [1], the “disruption of the gut barrier, fluorescence microscopy (FIG. 11M)” value is recorded as “prevented disruption of the gut barrier”. In data set [2], the “goblet and Paneth cell transcripts and cell numbers” value is “reduced goblet and Paneth cell transcripts as well as cell numbers”. In addition, in data set [3], the “TEER, indole metabolites” value is listed as “more effective when applied in this compartment than in the luminal”.
In the case of `C[n+]1cccc(C(N)=O)c1` [Methylnicotinamide, 1-methynicotinamide], the “disruption of the gut barrier, fluorescence microscopy (FIG. 11M)” value in data set [1] is “prevented disruption of the gut barrier”. Also, the “goblet and Paneth cell transcripts and cell numbers” value in data set [2] was “reduced goblet and Paneth cell transcripts as well as cell numbers”. Besides, in the data set with Caco2 BBE monolayer, the “TEER after DSS barrier disruption” value is given as “prevented barrier disruption”. Further, the “body weight loss and recovery in DSS leaky gut model” value in data set [4] (3% DSS, i.p. every other day, listed as MNA) was “dampened then accelerated the recovery of body weight; also recorded: robust and faster recovery”. For the same compound, the “tissue damage in histology sections” value in data set [4] (DSS-treated animals) is listed as “alleviated”. Besides, the fecal lipocalin levels result in data set [4] (MNA-DSS vs PBS-DSS) is recorded as “reduced fecal lipocalin”. The “body weight when injected alone” value in data set [4] (i.p. every other day, no DSS) is reported as “no deleterious effect on body weight”. Also, the “barrier function (plasma ovalbumin after oral ovalbumin gavage), increase vs PBS treated mice” value in data set [4] (i.p. injection) was found to be 2 fold. Moreover, in data set [4] (with DSS), the “colitis score (colitis index, blinded observer)” value is reported as “protected the tissue from damage even with DSS”; the “mRNA levels of Tjp1 and Ocln in the ileum” value was “increasing the mRNA levels to normal”.
